The text below walks through data of article PMC12751141, “Disrupting α-Synuclein–ClpP interaction restores mitochondrial function and attenuates neuropathology in Parkinson’s disease models” (Molecular Neurodegeneration, 2025).

“Also recorded” adds a separate entry of the source.

The subject of experiment [1] is αSyn oligomerization (VN/VC-αSyn), SH-SY5Y cells. As to the kind of experiment: BiFC split-Venus αSyn oligomerization in SH-SY5Y cells. It counts as cell-based. An excerpt: To construct truncated-αSyn plasmids, pcDNA3.1(-) was digested with BsteII and XbaI, and ΔN-, ΔC- and ΔNAC-αSyn was PCR-amplified using self-designed primers and inserted into the plasmid backbone. Cells were transfected with TransIT-2020 (Mirus Bio, LLC) following the manufacturer’s protocol.
The bimolecular fluorescence was examined 24-hour after transfection (n = 3, one-way ANOVA with Tukey’s post-hoc test, scale bar = 30 μm). (D) Quantification of the concentration (ng/ml) of extracellular αSyn monomer and oligomer, and intracellular αSyn oligomer in Tet-inducible SH-SY5Y cells that were pre-treated with TAT or CS2 peptide 30-minute before adding doxycycline (Dox) to induce αSyn expression. The concentration of αSyn species was determined by ELISA (n = 4, one-way ANOVA with Tukey’s post-hoc test; data are mean ± SEM). (E) Representative images of Mito-SOX staining in SH-SY5Y cells that were pre-treated with TAT or CS2 peptide and transfected with split Venus-αSyn vectors. Mitochondrial ROS production was determined by Mito-SOX staining after 24-hour transfection (n = 4, two-tailed Student’s t test, scale bar = 30 μm).
The bimolecular fluorescence was examined 24-hour after the transfection and quantitated (n = 14 areas/group, one-way ANOVA with Tukey’s post-hoc test, data are mean ± SEM).

Experiment [2] relates to αSyn-PFF-inoculated primary cortical neurons. As to the kind of experiment: Immunofluorescence / western blot in αSyn-PFF-inoculated primary cortical neurons. As to conditions: 1 µM daily. It counts as cell-based, mouse. The method, then: Primary cortical neurons were isolated from normal E18 mouse cortex (sex undetermined) and cultured using complete culturing kit (cat#: KTC57ECX, TransnetYX Tissue). Briefly, 100,000 cells were seeded on poly-D-lysine coated glass coverslips (PDL15mm, TransnetYX Tissue) and cultured in NbActiv1 medium (NB1, TransnetYX Tissue). Neurons were treated with sonicated human α-Syn-PFF (SPR-322, StressMarq Biosciences) starting on post-seeding Day 5 till Day 14. Starting from post-seeding Day 9, TAT or CS2 peptide was added daily at 1µM. Neurons were fixed on Day 14 and subjected for experiments.
Cells were grown on coverslips, fixed with 4% paraformaldehyde for 20 min at room temperature, permeabilized with 0.1% Triton X-100 in PBS, and blocked with 2% normal goat serum. The cells were incubated with the indicated primary antibodies overnight at 4℃. After washing with PBS, the cells were incubated with Alexa Fluor 488/568 or 405/568 secondary antibody (1:500; Thermo Fisher Scientific) for 2 h at room temperature. The nuclei were counterstained with DAPI (1:10000; Sigma-Aldrich). Images of the staining were acquired using a Fluoview FV3000 confocal microscope (Olympus).
Fig. 5 CS2 treatment mitigates αSyn PFF induced neurotoxicity. (A) Representative images of ClpP, αSyn (Syn204; recognize human αSyn only) and NeuN staining in αSyn PFF-inoculated mouse primary cortical neurons that were pre-treated with TAT or CS2 peptide (scale bar = 30 μm). Quantification of ClpP and αSyn co-localization (n = 12–13 neurons/group, two-tailed Student’s t test, data are mean ± SEM). (B-C) Representative images of ClpP, αSyn (Syn204) and NeuN staining in αSyn PFF-inoculated mouse primary cortical neurons that were pre-treated with TAT or CS2 peptide (scale bar = 30 μm). Neurons were fixed in 4% PFA/4% sucrose/1%Triton-X100 to extract the soluble factions before immunostaining. […] (D-E) Representative images of β-tubulin (Tuj1) and pS129-αSyn (pS129) staining in αSyn PFF-inoculated mouse primary cortical neurons that were pre-treated with TAT or CS2 peptide (scale bar = 30 μm). […] (F-H) Representative images of PSD95, Synapsin1 (SYN1) and pS129 staining in αSyn PFF-inoculated mouse primary cortical neurons that were pre-treated with TAT or CS2 peptide (scale bar = 30 μm).
(A) Experimental schematic of TAT or CS2 peptide treatment in mouse primary cortical neurons inoculated with human αSyn PFF: Primary cortical neurons were isolated from E18 mouse cortex (see methods) and plated on coverslips (Day -5); neurons were treated with human αSyn PFF on Day 0 at 50 ng/ml; On Day 4, TAT or CS2 (1µM) was added daily till Day 9.
(B) Total protein lysates were harvested from primary neurons inoculated with αSyn-PFF after treatment with TAT or PBS, and subjected for western blot. Shown are the representative blots.
(In general: A western blot detects proteins with antibodies after separation by electrophoresis.)

A further experiment deals with mThy1-hSNCA mice. As to the kind of experiment: Rotarod test in mThy1-hSNCA mice. It counts as in vivo, mouse. The settings on record: 3 mg/kg/day s.c.; age of 10-month; n = 13–15 mice/group; vs TAT. The method, then:
C57BL/6 N-Tg (Thy1-SNCA)15Mjff/J (JAX: 017682) breeders (C57Bl/6NJ genetic background) were purchased from Jackson Laboratories. The mice were mated, bred, and genotyped in the animal facility of Case Western Reserve University. All mice were maintained at a 12-hour light/dark cycle (on 6 am, off 6 pm). All randomization and peptide treatments in mThy1-hSNCA mice were prepared by an experimenter not associated with the behavioral and neuropathology analysis. Only male mice were used in the study. mThy1-hSNCA transgenic mice and their age-matched WT littermates were implanted with a 28-day subcutaneous osmotic pump (Alzet, Cupertino CA, Model 2004) containing either TAT control peptide or CS2 peptide, which delivered the peptides at indicated rate (1 or 3 or 10 mg/kg/day). The pump was replaced once every four weeks. All mice were sacrificed at age of 10-month for neuropathology assessment.
Mice were trained for the accelerating test on Day 1–3. On Day 5, motor coordination was assessed in TAT or CS2 treated mThy1-hSNCA transgenic mice and their age-matched wild-type littermates at age of 10-month, by measuring latency on a rotarod in an accelerated program for 300 s. Body weights of mThy1-hSNCA mice and wild-type littermates were recorded throughout the study period.
Fig. 7 CS2 treatment is protective in mThy1-hSNCA mouse model of PD. […]
(In general: The rotarod test checks motor coordination on a turning rod.)

The term IC50 denotes the concentration that inhibits the measured activity by half.

With `CC(C)[C@H](NC(=O)CNC(=O)CNC(=O)CCCCCNC(=O)[C@H](CCCNC(=N)N)NC(=O)[C@H](CCCNC(=N)N)NC(=O)[C@H](CCCNC(=N)N)NC(=O)[C@H](CCC(N)=O)NC(=O)[C@H](CCCNC(=N)N)NC(=O)[C@H](CCCNC(=N)N)NC(=O)[C@H](CCCCN)NC(=O)[C@H](CCCCN)NC(=O)[C@H](CCCNC(=N)N)NC(=O)CNC(=O)[C@@H](N)Cc1ccc(O)cc1)C(=O)N[C@H](C(=O)N[C@H](C(=O)N[C@@H](C)C(=O)O)[C@@H](C)O)C(C)C` [CS2, TAT-C6-GGVVTA], the “αSyn oligomerization, ClpP-deficient cells” value in experiment [1] (ClpPsh SH-SY5Y, effect of reducing αSyn oligomerization, n = 14 areas/group) is recorded as “no protective effect; also recorded: not observed in ClpP-deficient cells”. For the same compound, the “BiFC signal / αSyn oligomerization” value in experiment [1] (SH-SY5Y expressing VN/VC-αSyn, 24-hour after transfection) is “significantly reduced BiFC signal intensity”. Further, the IC50 in experiment [1] (SH-SY5Y expressing VN/VC-αSyn, pretreatment, 24-hour after transfection, n = 3, read-out: IC50, BiFC αSyn oligomer formation) is around 2.5 µM. Besides, the “ClpP expression, PFF neurons” value in experiment [2] (five days) was “rescued the expression of ClpP”. In addition, the “ClpP / αSyn co-localization” value in experiment [2] (five days, n = 12–13 neurons/group) is “reduced this colocalization”. Moreover, the “insoluble αSyn, PFF neurons” value in experiment [2] (detergent-insoluble, n = 20-30 neurons per group) is “significantly reduced the insoluble ClpP and αSyn signal”. Also, the “insoluble ClpP” value in experiment [2] (detergent-insoluble, n > 30 neurons/group) is “significantly reduced the insoluble ClpP and αSyn signal”. Further, in experiment [2] (n = 3–6), the “pS129-αSyn level, PFF neurons” value was “markedly reduced the level of pS129-αSyn”. Also, in experiment [2] (n > 30 areas), the Synapsin1/PSD95 colocalization result was “substantially restored Synapsin1/PSD95 colocalization”. Further, the “motor coordination on rotarod (latency to fall)” value with mThy1-hSNCA mice is given as “enhanced motor coordination”.
